One compound from article PMC12050906 (Drug Development Research, 2025) can be followed below.

One assay deals with 12-lipoxygenase (12-LO) (Homo sapiens, UniProt P18054). Kind of assay: 12-HETE biosynthesis. The class given is cell-based.
Another assay addresses T1, 5-lipoxygenase (5-LO) (Homo sapiens, UniProt P09917).
T1 sequence (P09917 1-674): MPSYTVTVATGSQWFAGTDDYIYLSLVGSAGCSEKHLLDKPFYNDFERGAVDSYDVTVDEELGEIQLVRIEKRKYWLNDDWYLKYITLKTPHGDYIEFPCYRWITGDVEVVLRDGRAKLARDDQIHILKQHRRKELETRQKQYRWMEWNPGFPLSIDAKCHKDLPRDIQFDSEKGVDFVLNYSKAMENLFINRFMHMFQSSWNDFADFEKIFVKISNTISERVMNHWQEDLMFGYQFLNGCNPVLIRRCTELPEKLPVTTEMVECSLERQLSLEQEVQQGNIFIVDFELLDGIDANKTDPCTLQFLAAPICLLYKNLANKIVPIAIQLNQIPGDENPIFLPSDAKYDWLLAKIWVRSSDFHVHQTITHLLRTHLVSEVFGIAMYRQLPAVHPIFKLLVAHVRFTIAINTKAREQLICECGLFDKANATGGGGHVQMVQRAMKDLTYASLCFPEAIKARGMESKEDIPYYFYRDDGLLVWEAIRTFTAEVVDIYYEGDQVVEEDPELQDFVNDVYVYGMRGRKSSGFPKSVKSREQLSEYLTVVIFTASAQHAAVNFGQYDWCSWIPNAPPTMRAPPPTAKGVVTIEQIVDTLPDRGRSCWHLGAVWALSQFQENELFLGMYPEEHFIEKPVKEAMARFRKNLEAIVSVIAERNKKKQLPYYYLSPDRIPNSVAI
T1 sequence (P20292 1-161 partner): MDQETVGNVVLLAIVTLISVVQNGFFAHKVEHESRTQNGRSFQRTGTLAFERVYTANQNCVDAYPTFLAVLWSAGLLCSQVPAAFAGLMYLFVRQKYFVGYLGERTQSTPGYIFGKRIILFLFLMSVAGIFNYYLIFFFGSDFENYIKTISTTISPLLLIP
Kind of assay: 5-LO product biosynthesis. Format: cell-based.

As a reminder, the IC50 is the concentration that gives 50% inhibition. Low values mean greater potency, high ones weaker potency.

Structures are written as SMILES.

12-lipoxygenase (12-LO), sequence (P18054 whole entry): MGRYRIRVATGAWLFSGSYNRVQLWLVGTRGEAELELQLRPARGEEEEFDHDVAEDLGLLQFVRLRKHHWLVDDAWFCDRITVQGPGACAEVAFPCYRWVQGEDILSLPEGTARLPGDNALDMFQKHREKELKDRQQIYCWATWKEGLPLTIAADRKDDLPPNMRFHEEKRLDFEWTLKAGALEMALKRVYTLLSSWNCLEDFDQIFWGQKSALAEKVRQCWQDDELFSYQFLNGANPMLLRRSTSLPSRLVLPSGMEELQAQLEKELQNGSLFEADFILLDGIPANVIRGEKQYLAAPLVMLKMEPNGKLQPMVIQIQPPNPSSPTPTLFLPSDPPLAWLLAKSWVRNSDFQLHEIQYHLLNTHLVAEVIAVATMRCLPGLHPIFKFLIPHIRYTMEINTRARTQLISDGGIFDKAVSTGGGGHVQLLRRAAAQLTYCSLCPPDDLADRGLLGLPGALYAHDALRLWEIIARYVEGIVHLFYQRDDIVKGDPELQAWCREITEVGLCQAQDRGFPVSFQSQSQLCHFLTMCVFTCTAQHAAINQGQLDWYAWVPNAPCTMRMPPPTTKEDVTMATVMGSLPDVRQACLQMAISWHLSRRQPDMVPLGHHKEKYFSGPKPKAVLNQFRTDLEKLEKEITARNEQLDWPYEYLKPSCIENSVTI

With `O=C(/C=C/c1ccc(O)c(O)c1)OCCc1ccccc1` [compound 1, Caffeic acid phenethyl ester], the “% remaining at 1 μM” value at 12-lipoxygenase (12-LO) was found to be 74.3. Also, the IC50 at 5-lipoxygenase (5-LO) was 1000 nM.
